Laboratory results taken from paper PMC7914897, “Cytotoxic Potential of a-Azepano- and 3-Amino-3,4-SeCo-Triterpenoids” (International Journal of Molecular Sciences, 2021).

Key:
[1] = system: A2780 (ovarian carcinoma); assay: SRB cytotoxicity assay, 72 h; type: cell-based, human; conditions: Homo sapiens; A2780, 72 h, cut-off 30 µM; read-out: EC50
Outline: (§1)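 EC50 values reflect percent surviving cells versus untreated controls, read at 570 nm after SRB staining of TCA-fixed monolayers. Dosing spanned 0–30 µM over 72 h.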

[2] = system: A375 (malignant melanoma); assay: SRB cytotoxicity assay, 72 h; type: cell-based, human; conditions: Homo sapiens, A-375, 72 h, A375, 72 h, cut-off 30 µM; read-out: EC50
Outline: as §1

[3] = system: FaDu (hypopharyngeal carcinoma); assay: SRB cytotoxicity assay, 72 h; type: cell-based, human; conditions: Homo sapiens, cut-off 30 µM, read-out: EC50
Outline: as §1

[4] = system: HT29 (colorectal carcinoma); assay: SRB cytotoxicity assay, 72 h; type: cell-based, human; conditions: Homo sapiens, HT-29; HT29, 72 h, cut-off 30 µM; read-out: EC50
Outline: as §1

MCF-7 (breast carcinoma) = assay: SRB cytotoxicity assay, 72 h; type: cell-based, human; conditions: Homo sapiens, MCF7; MCF-7, 72 h, cut-off 30 µM; read-out: EC50
Outline: as §1

OVCAR-4 (Ovarian cancer) = assay: NCI-60 screen (SRB, 48 h); type: cell-based; conditions: Homo sapiens; for IC (TGI): OVCAR-4, 48 h; for GI50: OVCAR-4, read-out: GI50
CNS cancer subpanel = assay: NCI-60 screen, subpanel; conditions: Homo sapiens; for IC (TGI): 48 h, read-out: TGI MG_MID; for GI50: read-out: GI50 MG_MID
Renal Cancer subpanel = assay: NCI-60 screen, subpanel; conditions: Homo sapiens; for IC (TGI): 48 h, read-out: TGI MG_MID; for GI50: read-out: GI50 MG_MID; for CC50: read-out: LC50 MG_MID
EKVX (NSC lung cancer) = assay: NCI-60 screen (SRB, 48 h); conditions: Homo sapiens; for IC (TGI): 48 h, read-out: TGI
[5] = system: NCI-H226 (NSC lung cancer); assay: NCI-60 screen (SRB, 48 h); conditions: Homo sapiens; for GI50: NCI-H226; for IC (TGI): NCI-H226, 48 h, read-out: TGI
[6] = system: NCI-H460 (NSC lung cancer); assay: NCI-60 screen (SRB, 48 h); conditions: Homo sapiens; for GI50: NCI-H460
[7] = system: NCI-H522 (NSC lung cancer); assay: NCI-60 screen (SRB, 48 h); conditions: Homo sapiens; for GI50: NCI-H522; for IC (TGI): NCI-H522, 48 h, read-out: TGI
HCC-2998 (Colon cancer) = assay: NCI-60 screen (SRB, 48 h); conditions: Homo sapiens; for GI50: HCC 2998
KM12 (Colon cancer) = assay: NCI-60 screen (SRB, 48 h); conditions: Homo sapiens; for GI50: KM12; for IC (TGI): KM12, 48 h, read-out: TGI
SW-620 (Colon cancer) = assay: NCI-60 screen (SRB, 48 h); conditions: Homo sapiens; for GI50: SW-620
SF-295 (CNS cancer) = assay: NCI-60 screen (SRB, 48 h); conditions: Homo sapiens; for GI50: SF-295; for IC (TGI): SF-295, 48 h, read-out: TGI
SNB-19 (CNS cancer) = assay: NCI-60 screen (SRB, 48 h); conditions: Homo sapiens; for GI50: SNB-19; for IC (TGI): SNB-19, 48 h, read-out: TGI
MALME-3M (Melanoma) = assay: NCI-60 screen (SRB, 48 h); conditions: Homo sapiens
SK-MEL-5 (Melanoma) = assay: NCI-60 screen (SRB, 48 h); conditions: for GI50: SK-MEL-5; for IC (TGI): SK-MEL-5, 48 h, read-out: TGI
A498 (Renal cancer) = assay: NCI-60 screen (SRB, 48 h); conditions: for GI50 / IC (TGI) / CC50: Homo sapiens; for GI50: A498; for IC (TGI): A498, 48 h, read-out: TGI; for CC50: A498, read-out: LC50
ACHN (Renal cancer) = assay: NCI-60 screen (SRB, 48 h); conditions: for GI50 / IC (TGI): Homo sapiens; for IC (TGI): 48 h, read-out: TGI
TK-10 (Renal cancer) = assay: NCI-60 screen (SRB, 48 h); conditions: for GI50: TK-10; for IC (TGI): TK-10, 48 h, read-out: TGI
MCF7 (Breast cancer) = assay: NCI-60 screen (SRB, 48 h); conditions: Homo sapiens; for GI50: MCF7
T-47D (Breast cancer) = assay: NCI-60 screen (SRB, 48 h); conditions: Homo sapiens, T47D; for IC (TGI): 48 h, read-out: TGI

C=C(C)[C@@H]1CC[C@]2(C(=O)N[C@H](CO)Cc3ccccc3)CC[C@]3(C)[C@H](CC[C@@H]4[C@@]5(C)CCCNC(C)(C)[C@@H]5CC[C@]43C)[C@@H]12 [Compound 11]
EC50 [1]: 0.78 ± 0.4 µM | EC50 [2]: 1 ± 0.1 µM | EC50 [3]: 0.88 ± 0.1 µM | EC50 [4]: 1.02 ± 0.03 µM | EC50 (MCF-7 (breast carcinoma)): 1.17 ± 0.2 µM | IC (TGI) (OVCAR-4 (Ovarian cancer)): 0.94 µM | GI50 (OVCAR-4 (Ovarian cancer)): 0.24 µM | IC (TGI) (CNS cancer subpanel): 3.08 µM | GI50 (CNS cancer subpanel): 1.51 µM | CC50 (CNS cancer subpanel; read-out: LC50 MG_MID): 5.72 µM | IC (TGI) (Renal Cancer subpanel): 2.93 µM | GI50 (Renal Cancer subpanel): 1.46 µM | CC50 (Renal Cancer subpanel): 5.76 µM | GI50 (EKVX (NSC lung cancer)): 1.73 µM | IC (TGI) (EKVX (NSC lung cancer)): 3.49 µM | GI50 [5]: 1.74 µM | IC (TGI) [5]: 4.01 µM | GI50 [6]: 1.21 µM | IC (TGI) ([6]; NCI-H460, 48 h, read-out: TGI): 2.77 µM | GI50 [7]: 1.75 µM | IC (TGI) [7]: 3.35 µM | CC50 ([7]; NCI-H522, read-out: LC50): 6.4 µM | GI50 (HCC-2998 (Colon cancer)): 1.61 µM | IC (TGI) (HCC-2998 (Colon cancer); HCC 2998, 48 h, read-out: TGI): 3.05 µM | GI50 (KM12 (Colon cancer)): 1.47 µM | IC (TGI) (KM12 (Colon cancer)): 2.91 µM | CC50 (KM12 (Colon cancer); KM12, read-out: LC50): 5.78 µM | GI50 (SW-620 (Colon cancer)): 0.85 µM | IC (TGI) (SW-620 (Colon cancer); SW-620, 48 h, read-out: TGI): 2.26 µM | GI50 (SF-295 (CNS cancer)): 1.67 µM | IC (TGI) (SF-295 (CNS cancer)): 3.21 µM | GI50 (SNB-19 (CNS cancer)): 1.17 µM | IC (TGI) (SNB-19 (CNS cancer)): 2.72 µM | GI50 (MALME-3M (Melanoma)): 1.42 µM | GI50 (SK-MEL-5 (Melanoma); Homo sapiens): 1.67 µM | IC (TGI) (SK-MEL-5 (Melanoma); Homo sapiens): 3.07 µM | CC50 (SK-MEL-5 (Melanoma); Homo sapiens, SK-MEL-5, read-out: LC50): 5.64 µM | Growth % of the Most Sensitive Cell Lines (SK-MEL-5 (Melanoma); SK-MEL-5, 1 dose 10 µM): −95.48% | Growth % of the Most Sensitive Cell Lines (A498 (Renal cancer); A498, 1 dose 10 µM): −97.92% | GI50 (A498 (Renal cancer)): 1.49 µM | IC (TGI) (A498 (Renal cancer)): 2.94 µM | CC50 (A498 (Renal cancer)): 5.81 µM | Growth % of the Most Sensitive Cell Lines (ACHN (Renal cancer); 1 dose 10 µM): −95.87% | GI50 (ACHN (Renal cancer)): 1.71 µM | IC (TGI) (ACHN (Renal cancer)): 3.16 µM | GI50 (TK-10 (Renal cancer); Homo sapiens): 1.61 µM | IC (TGI) (TK-10 (Renal cancer); Homo sapiens): 3.08 µM | CC50 (TK-10 (Renal cancer); Homo sapiens, TK-10, read-out: LC50): 5.89 µM | Growth % of the Most Sensitive Cell Lines (TK-10 (Renal cancer); TK-10, 1 dose 10 µM): −94.69% | GI50 (MCF7 (Breast cancer)): 0.49 µM | IC (TGI) (MCF7 (Breast cancer); MCF7, 48 h, read-out: TGI): 2.06 µM | GI50 (T-47D (Breast cancer)): 1.8 µM | IC (TGI) (T-47D (Breast cancer)): 4.02 µM

C=C(C)[C@@H]1CC[C@]2(COS(=O)(=O)c3ccc(C)cc3)CC[C@]3(C)[C@@H](CC[C@@H]4[C@@]5(C)CCCNC(C)(C)[C@@H]5CC[C@]43C)[C@@H]12 [Compound 12]
EC50 [1]: 1.68 ± 0.1 µM | EC50 [2]: 2.03 ± 0.1 µM | EC50 [3]: 1.59 ± 0.1 µM | EC50 [4]: 1.96 ± 0.3 µM | EC50 (MCF-7 (breast carcinoma)): 1.63 ± 0.1 µM | IC (TGI) (OVCAR-4 (Ovarian cancer)): 3.38 µM | GI50 (OVCAR-4 (Ovarian cancer)): 1.86 µM | IC (TGI) (CNS cancer subpanel): 3.49 µM | GI50 (CNS cancer subpanel): 1.79 µM | IC (TGI) (Renal Cancer subpanel): 3.26 µM | GI50 (Renal Cancer subpanel): 1.76 µM | CC50 (Renal Cancer subpanel): 5.87 µM | GI50 (EKVX (NSC lung cancer)): 1.62 µM | IC (TGI) (EKVX (NSC lung cancer)): 3.11 µM | GI50 [5]: 1.81 µM | IC (TGI) [5]: 3.63 µM | GI50 [6]: 1.68 µM | GI50 [7]: 1.7 µM | IC (TGI) [7]: 3.23 µM | GI50 (HCC-2998 (Colon cancer)): 1.58 µM | GI50 (KM12 (Colon cancer)): 1.84 µM | IC (TGI) (KM12 (Colon cancer)): 3.41 µM | GI50 (SW-620 (Colon cancer)): 1.83 µM | GI50 (SF-295 (CNS cancer)): 1.6 µM | IC (TGI) (SF-295 (CNS cancer)): 3.01 µM | GI50 (SNB-19 (CNS cancer)): 2.04 µM | IC (TGI) (SNB-19 (CNS cancer)): 3.68 µM | GI50 (MALME-3M (Melanoma)): 1.84 µM | IC (TGI) (MALME-3M (Melanoma); 48 h, read-out: TGI): 3.79 µM | GI50 (SK-MEL-5 (Melanoma); Homo sapiens): 1.67 µM | IC (TGI) (SK-MEL-5 (Melanoma); Homo sapiens): 3.08 µM | GI50 (A498 (Renal cancer)): 1.63 µM | IC (TGI) (A498 (Renal cancer)): 3.14 µM | CC50 (A498 (Renal cancer)): 6.04 µM | GI50 (ACHN (Renal cancer)): 1.98 µM | IC (TGI) (ACHN (Renal cancer)): 3.45 µM | GI50 (TK-10 (Renal cancer); Homo sapiens): 1.66 µM | IC (TGI) (TK-10 (Renal cancer); Homo sapiens): 3.23 µM | GI50 (MCF7 (Breast cancer)): 1.45 µM | GI50 (T-47D (Breast cancer)): 1.57 µM | IC (TGI) (T-47D (Breast cancer)): 3.15 µM
